From patent US7635722B1, “Chemical induced intracellular hyperthermia” (priority 1998, dated 2009)
Read-outs that look alike come from different tables or passages of the source.

Legend:
[1] = cited from earlier work
[2] = system: hepatocyte; settings: in less than 6 minutes after the hormonal action of glucagon; cited from earlier work
[3] = assay type: in vivo, human
Method: Placement of physiologic monitoring sensors, intravenous fluids, supplemental oxygen (4 l/min) and optional oral diazepam sedation (5-10 mg) is initiated prior to treatment. Patients receive 0.85 to 1.0 liter of intravenous (IV) 5% dextrose in 0.25 normal saline per hour alternated with 5% dextrose in 0.5 normal saline plus 7.5 to 10 meq of KCl per liter to insure a urinary output of no less than 1 ml/kg/hr. […] Two hours after treatment and 48 hours post-treatment, serum chemistries and hematologic profiles are repeated. A typical patient flow chart is depicted in FIG. 14.
Pretreatment protocol: the patient was given 10 mg diazepam by mouth and dressed into a modified wet suit. The wet suit was cut lengthwise at the arms and legs. Velcro strappings were attached at the cuttings for closure, rapid removal or exposure of the limb(s). After placement of monitoring sensors, they were started on IV fluids of 5% dextrose, 0.5 normal saline with 7 meq K^+, infused at an initial rate of 12 cc/kg/hr. Evaporative heat loss from the head was minimized by a plastic shower cap and towels. A 401AC temperature probe (YSI Incorporated, Yellow Springs, Ohio) was inserted 11 cm. into the rectum. […] A TEEM 100 Metabolic Analysis System (AeroSport Inc., Ann Arbor, Mich.), with a modified face mask and oxygen delivery system (38-40% 02 saturation) for patient comfort and increased accuracy, was attached to the patient. Oxygen consumption (V02), carbon dioxide production (VC02), expired air volume (VE), heart rate (HR), and Kcal of heat produced were measured in 20 second intervals and extrapolated to minute or hourly rates.
Pretreatment protocol: all medications were stopped 2 weeks prior to treatment. The patient refused taking diazepam, placement of a Foley catheter and oxygen face mask. They dressed themself into a dry cold water immersion suit (Stearns, ISS-590I, Universal Adult) designed to prevent heat loss and modified for easy placement of physiologic monitors. Equipment for measurement of heart rate, temperature, carbon dioxide production and Kcal of heat produced were conducted as outlined in Example 1. An oral breathing tube was used to measure V02 from room air. Urine output was measured when the patient voluntarily urinated through a “Texas” catheter (superficial condom tightly fitted around the head of the penis with tubing connected to urine collection bag). The patient was informed that hyperthermia would be administered as tolerated by their stamina and monitored clinical parameters, not to exceed 5 hours, on a daily or every other day basis, for a total of 5 sessions.
Pretreatment protocol: the evening prior treatment the patient was instructed not to eat and dress in cotton undergarments. Approximately 4 hours prior to treatment 2 mg alprazolam was administered by mouth. The patient dressed themself into a dry cold water immersion suit (Stearns, previously described) with headgear. Monitoring sensors, including EKG display, IV fluids and Foley catheter were attached and the suit was zipped closed. The patient opted for oxygen supplementation. The modified face mask was connected to the TEEM 100 metabolic Analysis System for V02 measurements. Data was recorded as previously described.
Pretreatment protocol: the patient was transfused with three units of packed red blood cells. A Foley catheter was inserted on each day of treatment. They were covered in a water soaked blanket containing a polyethylene lining. A shower cap with towels was used to prevent heat loss from the head. Intravenous lines were placed into both arms with 19 gauge intracaths. EKG, heart rate, rectal thermistor, and V02 monitors were attached. Oxygen supplemented facemask and equipment was attached and data monitored as previously described under Example 1.
Pretreatment protocol: the patient was transfused with 2 units of packed red blood cells 48 hours prior to undergoing treatment. Intravenous fluids (Lactated Ringer's solution) were administered at a rate of 100 cc/hour. […]

[4] = system: hepatitis C virus; assay: DNP with interferon-alpha, chronic hepatitis C (Example 10); assay type: in vivo, human; settings: patient history

Molecule: glucagon
- half-life ([1]; in plasma): 9 min
- stimulation of hepatocyte uncoupled V02 [2]: up to 100%

Molecule: NC(=O)CC[C@@H]1NC(=O)[C@H](Cc2ccccc2)NC(=O)[C@H](Cc2ccc(O)cc2)NC(=O)[C@@H](N)CSSC[C@@H](C(=O)N2CCC[C@H]2C(=O)N[C@@H](CCCN=C(N)N)C(=O)NCC(N)=O)NC(=O)[C@H](CC(N)=O)NC1=O [vasopressin]
- half-life ([1]; in vivo): 5 min

Molecule: CNC(C)(C)Cc1ccccc1.CNC(C)(C)Cc1ccccc1.O=S(=O)(O)O [Mephenteramine sulfate]
- heart rate ([3]; Example 4, ten minutes after 30 mg intramuscular, before DNP): 96
- V02 ([3]; Example 4, ten minutes after 30 mg intramuscular, before DNP, from 250): 320 cc/min

Molecule: NCCc1ccc(O)c(O)c1 [dopamine]
- V02 ([3]; human, in vivo): 680-710 cc/min

Molecule: NC[C@H](O)c1ccc(O)c(O)c1 [Norepinephrine bitartrate (Levophed), Norepinephrine bitartrate]
- heart rate ([3]; Example 2, about 1 minute after vasopressor IV drip 1 microgram/min on DNP, from 90): 100
- V02 ([3]; Example 2, about 1 minute after vasopressor IV drip on DNP): 0.85 L/min
- core body temperature ([3]; Example 2, within 20 minutes of vasopressor on DNP): 41.5 °C

Molecule: Oc1ccc(CCCCNC[C@H](O)c2ccc(O)c(O)c2)cc1 [arbutamine]
- half-life ([1]; in vivo): 10 min

Molecule: CN(C)c1ccc2nc3ccc(=[N+](C)C)cc-3sc2c1 [methylene blue]
- VO2 ([3]; Example 9, after methylene blue 2 mg/kg infusion, on DNP 3 mg/kg): 450-500 cc/minute

Molecule: interferon alpha-2b
- HCV-RNA ([4]; after 6 months of interferon alpha-2b with ribavirin, before relapse): undetectable
- hemoglobin concentration ([4]; after 12 weeks of interferon alpha-2b with ribavirin, anemia): 9.2 g/deciliter
